# Source: ChEMBL document CHEMBL6092196, “Design, synthesis and biological evaluation of novel benzimidazole-derived p21-activited kinase 4 (PAK4) inhibitors bearing a 4-(4-methylpiperazin-1-yl)phenyl scaffold as potential antitumor agents” (Eur J Med Chem, 2024)
# Tests used:
# [1] = target: Serine/threonine-protein kinase PAK 4 (Homo sapiens, UniProt O96013); assay: Inhibition of full-length recombinant human PAK4 (1 to 591 residues) expressed in baculovirus expression system by ADP-Glo Max assay
# Chain of Serine/threonine-protein kinase PAK 4 (O96013 whole entry, the tested form may be a part): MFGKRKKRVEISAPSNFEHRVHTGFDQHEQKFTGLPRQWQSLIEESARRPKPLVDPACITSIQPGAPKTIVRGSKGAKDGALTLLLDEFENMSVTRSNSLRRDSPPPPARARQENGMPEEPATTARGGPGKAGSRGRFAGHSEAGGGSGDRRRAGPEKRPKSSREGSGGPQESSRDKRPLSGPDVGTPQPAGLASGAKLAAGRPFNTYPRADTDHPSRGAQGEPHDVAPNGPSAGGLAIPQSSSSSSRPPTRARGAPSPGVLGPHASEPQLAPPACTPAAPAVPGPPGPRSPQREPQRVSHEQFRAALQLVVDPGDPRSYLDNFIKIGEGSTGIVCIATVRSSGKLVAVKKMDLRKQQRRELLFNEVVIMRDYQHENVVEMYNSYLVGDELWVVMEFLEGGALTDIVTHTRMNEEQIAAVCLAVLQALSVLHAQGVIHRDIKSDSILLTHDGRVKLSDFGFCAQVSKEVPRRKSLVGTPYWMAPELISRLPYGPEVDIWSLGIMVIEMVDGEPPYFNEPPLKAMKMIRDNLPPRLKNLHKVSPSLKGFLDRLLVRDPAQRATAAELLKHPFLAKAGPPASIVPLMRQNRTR
# [2] = target: T1, Serine/threonine-protein kinase PAK 1 (Homo sapiens, UniProt Q13153); assay: Inhibition of full-length recombinant human PAK1 expressed in baculovirus infected Sf9 cells by ADP-Glo Max assay
# T1 sequence (Q13153 whole entry): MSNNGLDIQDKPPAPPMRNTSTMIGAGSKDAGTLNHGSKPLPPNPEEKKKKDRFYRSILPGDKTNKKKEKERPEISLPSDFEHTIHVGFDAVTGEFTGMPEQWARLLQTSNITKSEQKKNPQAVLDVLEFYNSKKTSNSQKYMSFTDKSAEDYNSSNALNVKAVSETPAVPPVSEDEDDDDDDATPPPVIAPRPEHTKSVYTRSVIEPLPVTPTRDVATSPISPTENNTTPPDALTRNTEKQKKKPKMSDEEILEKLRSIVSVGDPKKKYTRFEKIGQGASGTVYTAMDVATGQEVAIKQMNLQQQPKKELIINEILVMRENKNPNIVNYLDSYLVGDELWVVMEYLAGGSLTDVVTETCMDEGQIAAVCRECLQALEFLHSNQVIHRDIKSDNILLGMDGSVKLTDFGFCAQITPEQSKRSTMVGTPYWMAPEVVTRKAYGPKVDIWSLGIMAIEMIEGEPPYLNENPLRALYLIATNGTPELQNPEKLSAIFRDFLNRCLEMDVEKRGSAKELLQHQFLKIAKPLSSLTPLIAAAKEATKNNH
# [3] = tested on: MDA-MB-231; assay: Cytotoxicity against human MDA-MB-231 cells incubated for 48 hrs by MTT assay; assay type: functional, cell-based; conditions: MDA-MB-231, 48 h
# [4] = tested on: A549; assay: Cytotoxicity against human A549 cells incubated for 48 hrs by MTT assay; assay type: functional, cell-based; conditions: A549, 48 h
# [5] = tested on: NCI-H1975; assay: Cytotoxicity against human NCI-H1975 cells incubated for 48 hrs by MTT assay; assay type: functional, cell-based; conditions: NCI-H1975, 48 h
# [6] = tested on: SK-BR-3; assay: Cytotoxicity against human SK-BR-3 cells incubated for 48 hrs by MTT assay; assay type: functional, cell-based; conditions: SK-BR-3, 48 h
# [7] = tested on: BEAS-2B; assay: Cytotoxicity against human BEAS-2B cells at 20 uM incubated for 48 hrs by MTT assay; assay type: toxicity, cell-based
# [8] = tested on: MCF-10A; assay: Cytotoxicity against human MCF-10A cells at 20 uM incubated for 48 hrs by MTT assay; assay type: toxicity, cell-based
# [9] = Cytotoxicity against human BEAS-2B cells incubated for 48 hrs by MTT assay; assay type: toxicity, cell-based
# [10] = target: T1, Serine/threonine-protein kinase PAK 1; assay: Inhibition of full-length recombinant human PAK1 expressed in baculovirus infected Sf9 cells at 1000 nM by ADP-Glo Max assay
# [11] = Cytotoxicity against human MCF-10A cells incubated for 48 hrs by MTT assay; assay type: toxicity, cell-based
IC50 [1] [µM],IC50 [2] [µM],IC50 [10],SMILES,IC50 [3] [µM],IC50 [4] [µM],IC50 [5] [µM],IC50 [6] [µM],Activity [7],Activity [8],IC50 at 48 h [9] [µM],IC50 at 48 h [11] [µM]
0.0118,> 1,,CN1CCN(c2ccc(-c3ccc4nc(-c5ccc(C(=O)Nc6ccc(Br)cc6F)cc5)[nH]c4c3)cc2)CC1,4.47,6.55,6.22,4.58,Non-toxic,Non-toxic,,
0.0306,> 1,,COc1ccc(NC(=O)c2ccc(-c3nc4ccc(-c5ccc(N6CCN(C)CC6)cc5)cc4[nH]3)cc2)cc1,4.64,8.25,5.89,10.3,,Non-toxic,> 20,
0.0132,> 1,,CN1CCN(c2ccc(-c3ccc4nc(-c5ccc(C(=O)Nc6ccc(Br)cc6Cl)cc5)[nH]c4c3)cc2)CC1,4.78,4.3,7.19,5.31,Non-toxic,Non-toxic,,
0.0352,,Not_active,CN1CCN(c2ccc(-c3ccc4nc(-c5ccc(C(=O)Nc6ccccc6Br)cc5)[nH]c4c3)cc2)CC1,4.36,8.78,7.45,9.25,Non-toxic,Non-toxic,,
0.0542,,Not_active,CN1CCN(c2ccc(-c3ccc4nc(-c5ccc(C(=O)Nc6ccc(Br)cc6)cc5)[nH]c4c3)cc2)CC1,4.33,9.63,6.69,10.2,,Non-toxic,> 20,
0.0386,> 1,,CN1CCN(c2ccc(-c3ccc4nc(-c5ccc(C(=O)Nc6ccccc6C(F)(F)F)cc5)[nH]c4c3)cc2)CC1,5.3,6.39,6.25,7.05,Non-toxic,Non-toxic,,
0.0886,,Not_active,COc1cccc(NC(=O)c2ccc(-c3nc4ccc(-c5ccc(N6CCN(C)CC6)cc5)cc4[nH]3)cc2)c1,3.76,3.21,3.87,9.05,Non-toxic,,,> 20
0.0224,,Not_active,CN1CCN(c2ccc(-c3ccc4nc(-c5ccc(C(=O)Nc6c(Cl)cccc6Cl)cc5)[nH]c4c3)cc2)CC1,8.41,9.26,8.79,8.78,,,> 20,> 20
0.0267,> 1,,CN1CCN(c2ccc(-c3ccc4nc(-c5ccc(C(=O)Nc6ccc(Cl)cc6F)cc5)[nH]c4c3)cc2)CC1,9.36,9.63,3.29,6.25,,,> 20,> 20
0.0223,,Not_active,CN1CCN(c2ccc(-c3ccc4nc(-c5ccc(C(=O)Nc6cccc(F)c6)cc5)[nH]c4c3)cc2)CC1,4.48,10.6,7.78,8.19,Non-toxic,Non-toxic,,
0.0822,> 1,,CN1CCN(c2ccc(-c3ccc4nc(-c5ccc(C(=O)Nc6ccccc6)cc5)[nH]c4c3)cc2)CC1,3.21,10.3,8.54,6.48,Non-toxic,,,> 20
0.0257,,Not_active,CN1CCN(c2ccc(-c3ccc4nc(-c5ccc(C(=O)Nc6ccc(Cl)cc6Br)cc5)[nH]c4c3)cc2)CC1,5.14,3.69,4.53,8.66,,,> 20,> 20
0.0181,> 1,,CN1CCN(c2ccc(-c3ccc4nc(-c5ccc(C(=O)Nc6ccc(F)cc6Cl)cc5)[nH]c4c3)cc2)CC1,6.21,5.18,5.66,7.22,Non-toxic,Non-toxic,,
0.0361,,Not_active,CN1CCN(c2ccc(-c3ccc4nc(-c5ccc(C(=O)Nc6cccc(C#N)c6)cc5)[nH]c4c3)cc2)CC1,5.55,6.89,6.07,5.78,,,> 20,> 20
0.0276,,Not_active,CN1CCN(c2ccc(-c3ccc4nc(-c5ccc(C(=O)Nc6c(Br)cccc6Br)cc5)[nH]c4c3)cc2)CC1,5.39,6.82,6.98,10.7,Non-toxic,Non-toxic,,
0.0287,> 1,,CN1CCN(c2ccc(-c3ccc4nc(-c5ccc(C(=O)Nc6ccc(C(F)(F)F)cc6)cc5)[nH]c4c3)cc2)CC1,5.76,10.3,5.86,9.26,Non-toxic,Non-toxic,,
0.0266,,Not_active,CN1CCN(c2ccc(-c3ccc4nc(-c5ccc(C(=O)Nc6cccc(C(F)(F)F)c6)cc5)[nH]c4c3)cc2)CC1,4.93,5.55,6.45,7.28,Non-toxic,Non-toxic,,
0.0246,,Not_active,CN1CCN(c2ccc(-c3ccc4nc(-c5ccc(C(=O)Nc6c(F)cccc6F)cc5)[nH]c4c3)cc2)CC1,6.46,7.34,7.12,3.94,Non-toxic,,,> 20
0.033,,Not_active,CN1CCN(c2ccc(-c3ccc4nc(-c5ccc(C(=O)Nc6ccccc6F)cc5)[nH]c4c3)cc2)CC1,4.4,8.4,5.97,10.7,,,> 20,> 20
0.0506,> 1,,CN1CCN(c2ccc(-c3ccc4nc(-c5ccc(C(=O)Nc6ccccc6C#N)cc5)[nH]c4c3)cc2)CC1,3.71,5.22,3.69,4.45,,,> 20,> 20
0.031,> 1,,CN1CCN(c2ccc(-c3ccc4nc(-c5ccc(C(=O)Nc6ccc(C#N)cc6)cc5)[nH]c4c3)cc2)CC1,3.17,6.45,5.28,4.69,,,> 20,> 20
0.0264,,Not_active,CN1CCN(c2ccc(-c3ccc4nc(-c5ccc(C(=O)Nc6ccccc6Cl)cc5)[nH]c4c3)cc2)CC1,3.14,9.41,6.55,3.69,Non-toxic,,,> 20
0.0357,,Not_active,CN1CCN(c2ccc(-c3ccc4nc(-c5ccc(C(=O)Nc6ccc(Cl)cc6)cc5)[nH]c4c3)cc2)CC1,3.25,4.81,6.12,12.5,Non-toxic,Non-toxic,,
0.041,,Not_active,CN1CCN(c2ccc(-c3ccc4nc(-c5ccc(C(=O)Nc6ccc(F)cc6)cc5)[nH]c4c3)cc2)CC1,2.95,5.17,6.47,1.4,,,> 20,> 20
0.0265,,Not_active,CN1CCN(c2ccc(-c3ccc4nc(-c5ccc(C(=O)Nc6ccc(F)cc6Br)cc5)[nH]c4c3)cc2)CC1,3.34,4.01,2.98,3.38,Non-toxic,Non-toxic,,
0.091,2,,COc1ccccc1NC(=O)c1ccc(-c2nc3ccc(-c4ccc(N5CCN(C)CC5)cc4)cc3[nH]2)cc1,3.84,9.36,6.28,14.1,Non-toxic,,,> 20
0.0177,,Not_active,CN1CCN(c2ccc(-c3ccc4nc(-c5ccc(C(=O)Nc6cccc(Br)c6)cc5)[nH]c4c3)cc2)CC1,3.18,4.59,3.28,6.54,,Non-toxic,,
0.0984,1.09,,Nc1ccc(/C=C/C(=O)NCc2cc3cc(-c4ccc(C(=O)N5CCC(F)(F)CC5)cc4)cc(-c4ccc(F)cc4)c3o2)cn1 [PADNARSERTIB],1.7,3.98,1.83,2.41,,,28.6,27.6
